One experiment relates to patient-derived cells. In words: McTN and stem cell responses of patient-derived cells to drugs (Example 4). Conditions: concentration listed in Table 2, 30 minutes, vs vehicle 0.1% DMSO. Format: cell-based, human. The procedure: Patient-derived cells are treated with either vehicle (0.1% DMSO) or each of the drugs in Table 2 at the indicated concentration for 30 minutes and then analyzed for McTN incidence.

In experiment [1] the test system is fresh patient tumor cells and tumorgrafts. In words: McTN drug response of fresh patient samples and tumorgrafts in the microfluidic device (Aim 3b). The conditions noted are these: concentration listed in Table 4, 60 minutes, media exchange in microfluidic channels.
Experimental: An automated microscope stage will collect images from each channel every 5 minutes across the one hour drug treatment.
Strategy and Analysis: The device prioritized from subaim 2a will be used to analyze fresh patient samples as well as the resulting tumorgrafts from 40 patients during the three years of the project. McTN images collected from each cell sample will be analyzed with a custom MatLab algorithm developed for this assay that can automatically identify McTNs but also score metrics that were previously not possible to measure, such as the average number of McTNs per cell (FIG. 12). […] Drugs will be added by media exchange across the six microfluidic channels at the concentrations listed in Table 4 for 60 minutes, which each affect McTNs in 1 hr.
The subject of another experiment is MDA-436 cells. Kind of experiment: Automated McTN analysis by confocal microscopy. Format: cell-based. Conditions: at least 10 random cells. From the text:
FIG. 24. Automated McTN analysis. […] A gradient vector flow snake algorithm was used to define the cell edges and a local curvature maxima effectively identified McTN ends (yellow diamonds). […] This automated cell shape analysis will also enable calculations of average McTN length, curvature, etc. that will yield more multi-dimensional data for McTN studies.

Experiment [2] relates to nonmetastatic SkBr3 cells. In words: McTN scoring in detached SkBr3 cells, confocal microscopy for tubulin localization. Format: cell-based, Human. Conditions: Jas 500 nM, Taxol 1.2 μM, McTNs scored blindly, 3 expts. The text has this: FIG. 4. Targeting cell division can increase McTNs. […] (Bars=mean+S.D from 3 expts. with McTNs scored blindly).
Genetic alterations and chemotherapies that stabilize tubulin can increase McTNs. Actin-disrupting drugs, such as jasplakinolide (Jas) are currently being developed as therapies to reduce tumor cell division and migration (Takeuchi H, Ara G, Sausville E A, Teicher B (1998). Jasplakinolide: interaction with radiation and hyperthermia in human prostate carcinoma and Lewis lung carcinoma. Cancer chemotherapy and pharmacology 42: 491-496). […] Dissemination and growth of cancer cells in metastatic sites. […] We have published that genetic alterations which promote McTNs (FIG. 2B) increase CTC lung retention in living mice (Balzer E M, Whipple R A, Thompson K, Boggs A E, Slovic J, Cho E H et al (2010). c-Src differentially regulates the functions of microtentacles and invadopodia. Oncogene 29: 6402-6408; Matrone M A, Whipple R A, Thompson K, Cho E H, Vitolo M I, Balzer E M et al (2010). Metastatic breast tumors express increased tau, which promotes microtentacle formation and the reattachment of detached breast tumor cells. Oncogene 29: 3217-3227).

SMILES strings stand for the structures.

Consider `CC(=O)O[C@@]12CO[C@@H]1C[C@H](O)[C@@]1(C)C(=O)[C@H](O)C3=C(C)[C@@H](OC(=O)[C@H](O)[C@@H](NC(=O)OC(C)(C)C)c4ccccc4)C[C@@](O)([C@@H](OC(=O)c4ccccc4)[C@H]21)C3(C)C` [Docetaxel], for which the “Predicted stemness & McTN effect” value in the experiment with patient-derived cells is given as “Increase”. Same read-out and setting: the value for `CN(C)S(=O)(=O)c1ccc2c(c1)/C(=C/c1cc3c([nH]1)CCCC3)C(=O)N2` [SU6656] was “Increase”.

With `C/C(=C\c1csc(C)n1)[C@@H]1C[C@@H]2O[C@]2(C)CCC[C@H](C)[C@H](O)[C@@H](C)C(=O)C(C)(C)[C@@H](O)CC(=O)N1` [Ixabepilone], the “Predicted stemness & McTN effect” value (in experiment [1]; in the experiment on patient-derived cells) was “Increase” throughout. For `COc1cc2c(c(OC)c1OC)-c1ccc(OC)c(=O)cc1[C@@H](NC(C)=O)CC2` [Colchicine], the “Predicted stemness & McTN effect” value (in experiment [1]; in the experiment on patient-derived cells) was “Decrease” throughout. The “average number of McTNs per cell” value with MDA-436 cells (colchicine 50 μM vs vehicle 0.1% DMSO) is “significantly reduces the average number of McTNs per cell”. For `C/C1=C\[C@H](C)C[C@H](C)OC(=O)C[C@H](c2ccc(O)cc2)NC(=O)[C@@H](Cc2c(Br)[nH]c3ccccc23)N(C)C(=O)[C@H](C)NC(=O)[C@@H](C)C1` [Jazplakinolide, Jasplakinolide], in the experiment on patient-derived cells, the “Predicted stemness & McTN effect” value was “Decrease”. Besides, the “levels of McTNs” value in experiment [2] is given as “strongly promote McTNs”; in experiment [2] (listed as Jas) it was “increases levels of McTNs dramatically”. Regarding `C=C1C(=O)O[C@@H]2/C=C(\C)CC/C=C(\C)CC[C@@H]12` [Costunolide], the “Predicted stemness & McTN effect” value with patient-derived cells is reported as “Decrease”.

`CC[C@]1(O)C[C@@H]2CN(CCc3c([nH]c4ccccc34)[C@@](C(=O)OC)(c3cc4c(cc3OC)N(C)[C@H]3[C@@](O)(C(=O)OC)[C@H](OC(C)=O)[C@]5(CC)C=CCN6CC[C@]43[C@@H]65)C2)C1` [Vinblastine]: the “Predicted stemness & McTN effect” value (in experiment [1]; in the experiment with patient-derived cells) was “Decrease” throughout. `O=S(=O)(c1cccc2c(I)cccc12)N1CCCNCC1` [ML-7]: the “Predicted stemness & McTN effect” value with patient-derived cells is “Decrease”.

As to `C[C@@H](N)[C@H]1CC[C@H](C(=O)Nc2ccncc2)CC1` [Y-27632], the “Predicted stemness & McTN effect” value with patient-derived cells is on record as “Increase”. Still for that read-out and setting: the value for `O=S(=O)(c1cccc2cnccc12)N1CCCNCC1` [Fasudil] was “Increase”. Turning to `COc1cc(/C=C/C(=O)CC(=O)/C=C/c2ccc(O)c(OC)c2)ccc1O` [Curcumin], the “Predicted stemness & McTN effect” value in experiment [1] is reported as “Decrease”.

On to `CC(=O)O[C@H]1C(=O)[C@@]2(C)[C@H]([C@H](OC(=O)c3ccccc3)[C@]3(O)C[C@H](OC(=O)[C@H](O)[C@@H](NC(=O)c4ccccc4)c4ccccc4)C(C)=C1C3(C)C)[C@]1(OC(C)=O)CO[C@@H]1C[C@@H]2O` [Paclitaxel], for which the “Predicted stemness & McTN effect” value (in experiment [1]; in the experiment with patient-derived cells) was “Increase” throughout. Further, the results for the “levels of McTNs” value in experiment [2] and in experiment [2] (listed as Paclitaxel-Taxol) were “strongly promote McTNs” and “increases levels of McTNs dramatically”, respectively. Further, in the experiment on MDA-436 cells (paclitaxel 1 μM vs vehicle 0.1% DMSO), the “average number of McTNs per cell” value was “increases McTNs, but this does not reach significance”.

The values are drawn from patent publication US12146874B2, “Microtentacle imaging in patient tumor samples” (University of Maryland, Baltimore, priority 2014, dated 2024).
